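Compound exposure: 48 hours, 5 concentrations, 96-well plates. GI50 = concentration required for 50% inhibition of growth.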 Activity calls are given as the source filed them. Rule as the data show it: active = GI50 up to about 1.1 µM and inactive = higher.
Key:
Experiment in all cases: NCI-60 cell line screen, 48 h
[1] = tested on: K562
[2] = tested on: A498
[3] = tested on: HL-60
[4] = tested on: COLO 205
[5] = tested on: SF-295
[6] = tested on: OVCAR-8
[7] = tested on: MCF7
[8] = tested on: SNB-75
[9] = tested on: Hs-578T
[10] = tested on: Malme-3M
[11] = tested on: MDA-N
[12] = tested on: CCRF-CEM
[13] = tested on: HOP-92
[14] = tested on: ACHN
[15] = tested on: LOX IMVI
[16] = tested on: UACC-62
[17] = tested on: NCI-H522
[18] = tested on: KM12
[19] = tested on: SK-MEL-28
[20] = tested on: SR

Compound | GI50 [1] | GI50 [2] | GI50 [3] | GI50 [4] | GI50 [5] | GI50 [6] | GI50 [7] | GI50 [8] | GI50 [9] | GI50 [10] | GI50 [11] | GI50 [12] | GI50 [13] | GI50 [14] | GI50 [15] | GI50 [16] | GI50 [17] | GI50 [18] | GI50 [19] | GI50 [20]
O=C1C2=Nc3ccccc3C(O)N2c2ccccc21 (stereo not given) | > 76 µM (inactive) | 18.7 µM (inactive) | 2.37 µM (inactive) | 39.2 µM (inactive) | 35.9 µM (inactive) | 32.3 µM (inactive) | 11.1 µM (inactive) | 23.6 µM (inactive) | 40.5 µM (inactive) | 14.3 µM (inactive) | 1.84 µM (inactive) | > 92.7 µM (inactive) | > 100 µM (inactive) | 5.62 µM (inactive) | 2.96 µM (inactive) | 3.51 µM (inactive) | 8.91 µM (inactive) | > 78.5 µM (inactive) | 23.4 µM (inactive) | 86.5 µM (inactive)
C/C=N\n1c(C)n[nH]c1=O | > 100 µM (inactive) | > 100 µM (inactive) | > 100 µM (inactive) | > 100 µM (inactive) | > 100 µM (inactive) | > 100 µM (inactive) | > 100 µM (inactive) | > 100 µM (inactive) | > 100 µM (inactive) | > 100 µM (inactive) | > 100 µM (inactive) | > 100 µM (inactive) | > 100 µM (inactive) | > 100 µM (inactive) | > 100 µM (inactive) | > 100 µM (inactive) | > 100 µM (inactive) | > 100 µM (inactive) | > 100 µM (inactive) | > 100 µM (inactive)
O=C1Oc2ccccc2C(=O)/C1=C/N1C(=O)N/C(=C\c2ccccc2O)C1=O | 54.7 µM (inactive) | 42.6 µM (inactive) | 60.3 µM (inactive) | 62.5 µM (inactive) | > 71 µM (inactive) | 58.1 µM (inactive) | 61.1 µM (inactive) | > 78.5 µM (inactive) | > 53.1 µM (inactive) | > 100 µM (inactive) | 60.7 µM (inactive) | > 100 µM (inactive) | 11 µM (inactive) | 47.6 µM (inactive) | 34.1 µM (inactive) | 36.9 µM (inactive) | 55.5 µM (inactive) | 56.8 µM (inactive) | > 84.9 µM (inactive) | 32.3 µM (inactive)
Cc1cc(NC(=O)NC(=O)c2ccccc2N)ccc1Oc1ncc(Br)cn1 | < 0.01 µM (active) | < 0.0802 µM (active) | < 0.01 µM (active) | < 0.0104 µM (active) | < 0.01 µM (active) | 0.0217 µM (active) | < 0.01 µM (active) | 0.0117 µM (active) | < 0.01 µM (active) | < 0.01 µM (active) | < 0.01 µM (active) | 0.0111 µM (active) | 0.0159 µM (active) | 0.11 µM (active) | 0.0139 µM (active) | 0.0347 µM (active) | < 0.01 µM (active) | < 0.0105 µM (active) | < 0.01 µM (active) | < 0.0631 µM (active)
Cc1ncc(-c2nnnn2-c2ccccc2)c(C(=O)O)n1 | > 100 µM (inactive) | > 100 µM (inactive) | > 100 µM (inactive) | > 100 µM (inactive) | > 100 µM (inactive) | > 100 µM (inactive) | > 100 µM (inactive) | > 100 µM (inactive) | > 100 µM (inactive) | > 100 µM (inactive) | > 100 µM (inactive) | > 100 µM (inactive) | > 100 µM (inactive) | > 100 µM (inactive) | > 100 µM (inactive) | > 100 µM (inactive) | > 100 µM (inactive) | > 100 µM (inactive) | > 100 µM (inactive) | > 100 µM (inactive)
